Type in all cases: in vivo
Data set [1] has as its system Beet Armyworm (Spodoptera exigua, LAPHEG) ("BAW"). The experiment in a line: Bioassays on BAW, 128-well diet tray assay. The note with it: 168 h, second instar larvae, 50 μg/cm^2 on artificial diet, 25° C., five to seven days, average of eight wells, read-out: BAW % Control (or Mortality) rating. The method, boiled down:
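One to five second-instar larvae were placed per well on artificial diet surface-treated with 50 μg/cm^2 compound from 90:10 acetone-water, dried before infestation. Trays were held at 25 °C, 14:10 light-dark, for five to seven days. Percent mortality was averaged over eight wells.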

Data set [2] relates to Corn Earworm (Helicoverpa zea, HELIZE) ("CEW"). The experiment in a line: Bioassays on CEW, 128-well diet tray assay. The settings on record: 168 h, second instar larvae, 50 μg/cm^2 on artificial diet, 25° C., five to seven days, average of eight wells, read-out: CEW % Control (or Mortality) rating. As for the experimental part:
Certain molecules disclosed in this document were tested against BAW, CEW, and CL using procedures described in the following examples. In the reporting of the results, the “BAW, CEW, & CL Rating Table” was used (See Table Section).
Bioassays on CEW were conducted using a 128-well diet tray assay. one to five second instar CEW larvae were placed in each well (3 mL) of the diet tray that had been previously filled with 1 mL of artificial diet to which 50 μg/cm^2 of the test compound (dissolved in 50 μL of 90:10 acetone-water mixture) had been applied (to each of eight wells) and then allowed to dry. Trays were covered with a clear self-adhesive cover, and held at 25° C., 14:10 light-dark for five to seven days. Percent mortality was recorded for the larvae in each well; activity in the eight wells was then averaged. The results are indicated in the table entitled “Table ABC: Biological Results” (See Table Section). Bioassays on CL

Data set [3] concerns Cabbage Looper (Trichoplusia ni, TRIPNI) ("CL"). The experiment in a line: Bioassays on CL, 128-well diet tray assay. The note with it: 168 h, second instar larvae, 50 μg/cm^2 on artificial diet, 25° C., five to seven days, average of eight wells, read-out: CL % Control (or Mortality) rating. The method, boiled down:
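Second-instar larvae (one to five per well) on artificial diet surface-treated with 50 μg/cm^2 compound in 90:10 acetone-water, eight wells per treatment. Held at 25° C., 14:10 light-dark for five to seven days. Percent mortality scored per well and averaged over the eight wells.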

For data set [4], the system named is Yellow Fever Mosquito (Aedes aegypti, AEDSAE) ("YFM"). The experiment in a line: Bioassays on YFM, 96-well plate larval assay. The settings on record: about 1 day-old larvae, from 4000 ppm DMSO master plate diluted, room temperature, scored after 3 days. The method, boiled down: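 Compounds from 4000 ppm DMSO master plates, diluted in 90:10 water:acetone, dispensed into 96-well plates, six replicates. About 1-day-old larvae added in liver-powder water. Wells covered, held 3 days at room temperature, then scored for mortality.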

The test system of data set [5] is Green Peach Aphid (Myzus persicae, MYZUPE) ("GPA"). The experiment in a line: Bioassays on GPA, foliar spray of infested cabbage seedlings. The settings on record: 72 h, 200 ppm spray on cabbage seedlings, graded after three days, Abbott corrected % control, read-out: GPA % Control (or Mortality) rating. The method, boiled down: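 Cabbage seedlings (2-3 true leaves) infested with 20-50 wingless adult and nymph aphids one day before spraying to runoff at 200 ppm in aqueous 0.025% Tween 20 with 20% acetone/methanol. Live aphids counted after three days at ~25 °C; % control by Abbott's correction versus solvent-check plants.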

Data on 20 compounds can be found in patent US9445594B2, “Molecules having certain pesticidal utilities, intermediates, compositions, and processes, related thereto” (priority 2014, dated 2016).

The structures appear in SMILES notation.

On to `FC(F)(F)Oc1ccc(-n2cnc(-c3ccc(NC(=S)Nc4ccccc4-n4cccc4)cc3)n2)cc1` [F74, 1-(2-(1H-Pyrrol-1-yl)phenyl)-3-(4-(1-(4-(trifluoromethoxy)phenyl)-1H-1,2,4-triazol-3-yl)phenyl)thiourea], for which the mortality at 50 µg/cm2 in data set [1], in data set [2] and in data set [3] was 50 to 100% throughout.

With `CC(C)c1ccccc1NC(=O)NCc1ccc(-c2ncn(-c3ccc(OC(F)(F)F)cc3)n2)cc1` [F65, 1-(2-Isopropylphenyl)-3-(4-(1-(4-(trifluoromethoxy)phenyl)-1H-1,2,4-triazol-3-yl)benzyl)urea], the figures for the mortality at 50 µg/cm2 in data set [1], in data set [2] and in data set [3] were 0%, 0 to 50% and 50 to 100%, respectively. Further, the “YFM % Control (or Mortality) rating” value in data set [4] was “D (No activity noticed in this bioassay)”.

Turning to `COc1ccc(NC(=S)Nc2ccc(-c3ncn(-c4ccc(OC(F)(F)F)cc4)n3)cc2)cc1` [F71, 1-(4-Methoxyphenyl)-3-(4-(1-(4-(trifluoromethoxy)phenyl)-1H-1,2,4-triazol-3-yl)phenyl)thiourea], the mortality at 50 µg/cm2 in data set [1] and in data set [2] was 50 to 100% in each case.

With `CC(C)c1ccccc1NC(=S)Nc1ccc(-c2ncn(-c3ccc(OC(F)(F)F)cc3)n2)cc1` [F3, 1-(2-isopropylphenyl)-3-(4-(1-(4-(trifluoromethoxy)phenyl)-1H-1,2,4-triazol-3-yl)phenyl)thiourea], the mortality at 50 µg/cm2 in data set [1] and in data set [2] was 50 to 100% each time.

Regarding `CC(C)c1ccccc1NC(=O)NCc1ccc(-c2ncn(-c3ccc(OC(F)(F)C(F)(F)F)cc3)n2)cc1` [F34, 1-(2-isopropylphenyl)-3-(4-(1-(4-(perfluoroethoxy)phenyl)-1H-1,2,4-triazol-3-yl)benzyl)urea], the figures for the mortality at 50 µg/cm2 in data set [1], in data set [2] and in data set [3] were 0%, 50 to 100% and 50 to 100%, respectively.

For the compound `O=C(NCc1ccc(-c2ncn(-c3ccc(OC(F)(F)C(F)(F)F)cc3)n2)cc1)Nc1ccccc1-c1ccccc1` [F73, 1-([1,1′-Biphenyl]-2-yl)-3-(4-(1-(4-(perfluoroethoxy)phenyl)-1H-1,2,4-triazol-3-yl)benzyl)urea], the mortality at 50 µg/cm2 in data set [1], in data set [2] and in data set [3] was 50 to 100% each time.

`FC(F)(F)Oc1ccc(-n2cnc(-c3ccc(NC(=S)Nc4cnccc4C(F)(F)F)cc3)n2)cc1` [F12, 1-(4-(1-(4-(trifluoromethoxy)phenyl)-1H-1,2,4-triazol-3-yl)phenyl)-3-(4-(trifluoromethyl)pyridin-3-yl)thiourea]: the mortality at 50 µg/cm2 in data set [1] and in data set [2] was 0% each time.

For `FC(F)(F)Oc1ccc(-n2cnc(-c3ccc(NC(=S)Nc4ccc5ccccc5c4)cc3)n2)cc1` [F25, 1-(Naphthalen-2-yl)-3-(4-(1-(4-(trifluoromethoxy)phenyl)-1H-1,2,4-triazol-3-yl)phenyl)thiourea], the mortality at 50 µg/cm2 in data set [1] and in data set [2] was 50 to 100% in each case.

Take `COc1ccc(NC(=S)Nc2ccc(-c3ncn(-c4ccc(OC(F)(F)F)cc4)n3)cc2)c(C)c1` [F43, 1-(4-Methoxy-2-methylphenyl)-3-(4-(1-(4-(trifluoromethoxy)phenyl)-1H-1,2,4-triazol-3-yl)phenyl)thiourea]: the mortality at 50 µg/cm2 in data set [1] and in data set [2] was 50 to 100% each time.

`CCOc1ccc(NC(=S)Nc2ccc(-c3ncn(-c4ccc(OC(F)(F)F)cc4)n3)cc2)cn1` [F14, 1-(6-Ethoxypyridin-3-yl)-3-(4-(1-(4-(trifluoromethoxy)phenyl)-1H-1,2,4-triazol-3-yl)phenyl)thiourea]: the mortality at 50 µg/cm2 in data set [1] and in data set [2] was 0% in each case.

For `CSc1ccc(NC(=S)Nc2ccc(-c3ncn(-c4ccc(OC(F)(F)F)cc4)n3)cc2)cn1` [F27, 1-(6-(Methylthio)pyridin-3-yl)-3-(4-(1-(4-(trifluoromethoxy)phenyl)-1H-1,2,4-triazol-3-yl)phenyl)thiourea], the mortality at 50 µg/cm2 in data set [1] and in data set [2] was 0% each time.

Consider `O=C(Nc1ccc(F)cc1)Nc1ccc(-c2ncn(-c3ccc(OC(F)(F)F)cc3)n2)cc1` [F17, 1-(4-fluorophenyl)-3-(4-(1-(4-(trifluoromethoxy)phenyl)-1H-1,2,4-triazol-3-yl)phenyl)urea], for which the mortality at 50 µg/cm2 in data set [1] and in data set [2] was 0% each time. Moreover, the “YFM % Control (or Mortality) rating” value in data set [4] is on record as “D (No activity noticed in this bioassay)”.

On to `O=C(Nc1ccc(-c2ncn(-c3ccc(OC(F)(F)F)cc3)n2)cc1)Nc1ccccc1C1CC1` [F40, 1-(2-cyclopropylphenyl)-3-(4-(1-(4-(trifluoromethoxy)phenyl)-1H-1,2,4-triazol-3-yl)phenyl)urea], for which the mortality at 50 µg/cm2 in data set [1], in data set [2] and in data set [3] was 50 to 100% each time.

For `O=C(Nc1ccc(-c2ncn(-c3ccc(OC(F)(F)F)cc3)n2)cc1)Nc1ccccc1N1CCOCC1` [F69, 1-(2-Morpholinophenyl)-3-(4-(1-(4-(trifluoromethoxy)phenyl)-1H-1,2,4-triazol-3-yl)phenyl)urea], the mortality at 50 µg/cm2 in data set [1] and in data set [3] was 50 to 100% in each case. The “YFM % Control (or Mortality) rating” value in data set [4] was “A (80-100)”. In addition, the mortality – broadly, the percentage killed – at 200 ppm in data set [5] is 0%.

With `Cc1ccc(C(C)C)c(NC(=O)NCCCc2ccc(-c3ncn(-c4ccc(OC(F)(F)F)cc4)n3)cc2)c1` [P6, 1-(2-Isopropyl-5-methylphenyl)-3-(3-(4-(1-(4-(trifluoromethoxy)phenyl)-1H-1,2,4-triazol-3-yl)phenyl)propyl)urea], the mortality at 50 µg/cm2 in data set [1] and in data set [3] was 50 to 100% each time. Moreover, in data set [4], the “YFM % Control (or Mortality) rating” value is reported as “A (80-100)”. The mortality at 200 ppm in data set [5] is 0%.

Turning to `CC(C)(C)c1ccccc1NC(=O)Nc1ccc(-c2ncn(-c3ccc(OC(F)(F)F)cc3)n2)cc1` [F38, 1-(2-(Tert-butyl)phenyl)-3-(4-(1-(4-(trifluoromethoxy)phenyl)-1H-1,2,4-triazol-3-yl)phenyl)urea], the values for the mortality at 50 µg/cm2 in data set [1] and in data set [3] were 0 to 50% and 50 to 100%, respectively. Besides, the “YFM % Control (or Mortality) rating” value in data set [4] was “D (No activity noticed in this bioassay)”. Also, the mortality at 200 ppm in data set [5] came to 0%.

On to `O=C(NCCCc1ccc(-c2ncn(-c3ccc(OC(F)(F)F)cc3)n2)cc1)Nc1cccc(-c2ccccc2)c1` [P7, 1-([1,1′-biphenyl]-3-yl)-3-(3-(4-(1-(4-(trifluoromethoxy)phenyl)-1H-1,2,4-triazol-3-yl)phenyl)propyl)urea], for which the mortality at 50 µg/cm2 in data set [1] and in data set [3] was 0% in each case. The “YFM % Control (or Mortality) rating” value in data set [4] is “D (No activity noticed in this bioassay)”. Moreover, the mortality at 200 ppm in data set [5] came out at 0%.

Regarding `N#Cc1ccc(NC(=S)Nc2ccc(-c3ncn(-c4ccc(OC(F)(F)F)cc4)n3)cc2)cc1` [F7, 1-(4-Cyanophenyl)-3-(4-(1-(4-(trifluoromethoxy)phenyl)-1H-1,2,4-triazol-3-yl)phenyl)thiourea], the mortality at 50 µg/cm2 in data set [1] and in data set [2] was 0% in each case.

Turning to `CC(C)c1ccccc1-c1ccccc1NC(=O)Nc1ccc(-c2ncn(-c3ccc(OC(F)(F)F)cc3)n2)cc1` [F63, 1-(2′-Isopropyl-[1,1′-biphenyl]-2-yl)-3-(4-(1-(4-(trifluoromethoxy)phenyl)-1H-1,2,4-triazol-3-yl)phenyl)urea], the mortality at 50 µg/cm2 in data set [1] and in data set [3] was 50 to 100% throughout. Further, the “YFM % Control (or Mortality) rating” value in data set [4] is “D (No activity noticed in this bioassay)”. The mortality at 200 ppm in data set [5] was in the range of 0 to 80%.

On to `CC(C)c1ccccc1-c1ccccc1NC(=S)Nc1ccc(-c2ncn(-c3ccc(OC(F)(F)F)cc3)n2)cc1` [F28, 1-(2′-isopropyl-[1,1′-biphenyl]-2-yl)-3-(4-(1-(4-(trifluoromethoxy)phenyl)-1H-1,2,4-triazol-3-yl)phenyl)thiourea], for which the mortality at 50 µg/cm2 is 0 to 50% in data set [1] and 50 to 100% in data set [3]. In addition, the “YFM % Control (or Mortality) rating” value in data set [4] is on record as “D (No activity noticed in this bioassay)”. Also, the mortality at 200 ppm in data set [5] lay within 0 to 80%.
